Consider 7 compounds from ChEMBL document CHEMBL1201862, “PubChem BioAssay data set” (2004).

Assay [1] deals with HeLa. The assay can be described thus: viability loss in HeLa cells – cell-based, ATP luminescence, cherry-pick samples, cytotoxicity control, dose response (AID 687004). It is filed as functional. To be noted: Homo sapiens.
The nature of assay [2]: luciferase reporter signal suppression in cells – H4 neuroglioma cells, luminescence, dose response (AID 1990). Type of assay: functional, cell-based.
The nature of assay [3]: alpha-synuclein stem-loop luciferase translation blockers – H4 neuroglioma cells, luminescence, confirmation (AID 1988). It is filed as functional, cell-based.
A short description of assay [4]: Luminescence Cell-Based Dose Response HTS to Identify Inhibitors of 5'UTR Stem-Loop Driven Prion Protein mRNA Translation in H4 Neuroglioblastoma Cells. [Related pubchem assays: 1827 (Project Summary), 1813 (Primary HTS)]. Type of assay: functional.
Assay [5] concerns INS1. In words: INS-1E survival protection against cytokine death – cell-based, luminescence, retest, dose response (AID 449756).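 Also: cell death triggered by IL-1 beta plus TNF-alpha plus IFN-gamma mixture; protective hits raise ATP signal compared with cytokine alone wells.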 To be noted: Rattus norvegicus. It is filed as functional.
Assay [6] in a line: general mammalian cell viability loss – inhibitor set, cherry-pick, set 2, cytotoxicity control for miR-122 modulator project, dose response (AID 720697). Type of assay: functional, cell-based.
Assay [7] can be described thus: general mammalian cell viability loss – activator set, cherry-pick, cytotoxicity control for miR-122 modulator project, dose response (AID 720690).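 Also: HEK293T human cells scored for general mammalian cytotoxicity.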 It is filed as functional, cell-based.
The target in assay [8] is T1, DNA repair protein RAD52 homolog (Homo sapiens, UniProt P43351).
T1 sequence (P43351 whole entry): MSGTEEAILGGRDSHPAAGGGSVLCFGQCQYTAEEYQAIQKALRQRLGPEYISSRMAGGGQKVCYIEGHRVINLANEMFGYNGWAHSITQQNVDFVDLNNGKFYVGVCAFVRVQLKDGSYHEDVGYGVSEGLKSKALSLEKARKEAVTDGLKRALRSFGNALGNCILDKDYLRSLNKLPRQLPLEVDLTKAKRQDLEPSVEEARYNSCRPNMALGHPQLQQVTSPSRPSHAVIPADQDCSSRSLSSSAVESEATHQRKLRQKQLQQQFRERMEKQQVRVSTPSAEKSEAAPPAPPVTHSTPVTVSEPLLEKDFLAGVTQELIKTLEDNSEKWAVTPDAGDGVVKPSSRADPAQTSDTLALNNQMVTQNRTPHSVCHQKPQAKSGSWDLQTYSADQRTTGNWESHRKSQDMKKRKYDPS
Type of assay: functional, biochemical.

Assay [9] can be described thus: activation of miR-122 Renilla sensor silencing – cell-based, Huh7 psiCHECK-miR122, Renilla luciferase, cherry-picked, dose response (AID 651956).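 Also: huh7 hepatoma cells stably carrying a psiCHECK-2 miR-122 sensor plasmid; renilla luciferase signal reporting endogenous miR-122 activity after 48 h compound exposure.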 Type of assay: functional.
The target in assay [10] is Beta-galactosidase (Escherichia coli, UniProt Q8VNN2). The assay can be described thus: Dose response counterscreen for EBI2 assay utilizing the enzyme, b-galactosidase. It is filed as functional. A general note: The purpose of a counterscreen is to sort out artefacts and off-target activity.
Sequence of Beta-galactosidase (Q8VNN2 whole entry): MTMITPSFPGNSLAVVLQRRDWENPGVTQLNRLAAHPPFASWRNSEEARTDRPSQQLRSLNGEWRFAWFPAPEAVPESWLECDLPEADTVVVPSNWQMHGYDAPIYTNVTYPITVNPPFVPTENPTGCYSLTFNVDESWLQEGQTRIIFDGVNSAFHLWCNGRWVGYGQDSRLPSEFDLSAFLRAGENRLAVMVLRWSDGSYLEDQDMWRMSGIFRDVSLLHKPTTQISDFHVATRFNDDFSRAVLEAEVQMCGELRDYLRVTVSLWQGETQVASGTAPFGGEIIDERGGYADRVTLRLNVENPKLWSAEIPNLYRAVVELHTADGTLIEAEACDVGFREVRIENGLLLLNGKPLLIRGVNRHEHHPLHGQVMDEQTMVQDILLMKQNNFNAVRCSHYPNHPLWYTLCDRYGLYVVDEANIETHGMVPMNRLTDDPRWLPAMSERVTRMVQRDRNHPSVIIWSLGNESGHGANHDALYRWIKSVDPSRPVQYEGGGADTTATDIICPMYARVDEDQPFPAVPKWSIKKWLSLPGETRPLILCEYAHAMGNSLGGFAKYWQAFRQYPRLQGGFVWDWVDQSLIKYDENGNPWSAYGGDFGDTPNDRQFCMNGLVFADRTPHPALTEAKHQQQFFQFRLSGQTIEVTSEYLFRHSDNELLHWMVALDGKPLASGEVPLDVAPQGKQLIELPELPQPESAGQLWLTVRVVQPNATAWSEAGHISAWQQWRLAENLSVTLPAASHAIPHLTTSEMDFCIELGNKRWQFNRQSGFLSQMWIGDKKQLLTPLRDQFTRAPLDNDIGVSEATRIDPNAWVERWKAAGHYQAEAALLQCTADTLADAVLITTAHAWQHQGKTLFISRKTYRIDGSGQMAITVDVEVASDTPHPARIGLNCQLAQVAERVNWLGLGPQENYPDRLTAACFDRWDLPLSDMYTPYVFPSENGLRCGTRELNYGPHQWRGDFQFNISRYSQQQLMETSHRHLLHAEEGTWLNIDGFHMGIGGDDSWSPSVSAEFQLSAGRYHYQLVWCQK
Assay [11] concerns the target T2, Beta-2 adrenergic receptor (Homo sapiens, UniProt P07550). In words: Dose response for HTS for Beta-2AR agonists via FAP method from Powderset3. It is filed as functional.
Assay [12] has as its target T2, Beta-2 adrenergic receptor. In words: ADRB2 activation measured by internalization – cell-based, FAP fluorogen, flow cytometry, cherry pick 1, dose response (AID 588763). It is filed as functional. (In general: Flow cytometry measures light scatter and fluorescence of single cells or particles in a stream.)
Assay [13] addresses Broad substrate specificity ATP-binding cassette transporter ABCG2 (Homo sapiens, UniProt Q9UNQ0). In words: blockers of JC-1 export by ABCG2 – Ig-MXP3 cells, flow cytometry, dose response (AID 1690). It is filed as functional.
For assay [14], the target named is Prothrombin (Homo sapiens, UniProt P00734). The assay can be described thus: Thrombin 1536 HTS Dose Response Confirmation. [Related pubchem assays: 1046 (Thrombin 1536 HTS; hits were confirmed in this assay)]. It is filed as functional.
Assay [15] is described as follows: bead-based luminescence quenchers, dual-tagged ARNT – biochemical, AlphaScreen, cherry-pick, artefact control for ARNT-TACC3 interaction inhibitor project, dose response (AID 651705).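 Also: AlphaScreen bead proximity signal that flags compounds interfering with the detection technology; potency reflects signal decrease which marks the compound as an assay artifact.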 Type of assay: functional. (In Alpha technology, singlet oxygen from a donor bead excites a nearby acceptor bead.)
In assay [16] the test system is BHK-21. The assay can be described thus: viability loss in BHK-21 cells – cell-based, plate reader, cherry-pick samples, cytotoxicity control, dose response (AID 687030). To be noted: Mesocricetus auratus. It is filed as functional.
The subject of assay [17] is A549. In words: viability loss in A549 cells – cell-based, plate reader, cherry-pick samples, cytotoxicity control, dose response (AID 687028). To be noted: Homo sapiens. Type of assay: functional.
The subject of assay [18] is Vero. In words: viability loss in Vero cells – cell-based, plate reader, cherry-pick samples, cytotoxicity control, dose response (AID 687020). Type of assay: functional. Particulars: Chlorocebus sabaeus.

The structures appear in SMILES notation. Activity calls are given as the source filed them.

T2 sequence (P07550 whole entry): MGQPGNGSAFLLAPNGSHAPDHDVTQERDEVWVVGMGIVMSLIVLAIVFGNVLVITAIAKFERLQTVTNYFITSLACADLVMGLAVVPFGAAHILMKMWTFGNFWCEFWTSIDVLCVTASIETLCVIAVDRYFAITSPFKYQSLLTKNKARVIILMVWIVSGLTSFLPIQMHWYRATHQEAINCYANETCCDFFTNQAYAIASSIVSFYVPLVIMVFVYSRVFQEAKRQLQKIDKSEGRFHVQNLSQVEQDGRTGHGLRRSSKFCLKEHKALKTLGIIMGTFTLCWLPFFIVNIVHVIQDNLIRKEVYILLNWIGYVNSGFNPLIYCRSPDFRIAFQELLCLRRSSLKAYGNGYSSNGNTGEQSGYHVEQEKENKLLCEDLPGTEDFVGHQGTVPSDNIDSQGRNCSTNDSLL
Sequence of Broad substrate specificity ATP-binding cassette transporter ABCG2 (Q9UNQ0 whole entry): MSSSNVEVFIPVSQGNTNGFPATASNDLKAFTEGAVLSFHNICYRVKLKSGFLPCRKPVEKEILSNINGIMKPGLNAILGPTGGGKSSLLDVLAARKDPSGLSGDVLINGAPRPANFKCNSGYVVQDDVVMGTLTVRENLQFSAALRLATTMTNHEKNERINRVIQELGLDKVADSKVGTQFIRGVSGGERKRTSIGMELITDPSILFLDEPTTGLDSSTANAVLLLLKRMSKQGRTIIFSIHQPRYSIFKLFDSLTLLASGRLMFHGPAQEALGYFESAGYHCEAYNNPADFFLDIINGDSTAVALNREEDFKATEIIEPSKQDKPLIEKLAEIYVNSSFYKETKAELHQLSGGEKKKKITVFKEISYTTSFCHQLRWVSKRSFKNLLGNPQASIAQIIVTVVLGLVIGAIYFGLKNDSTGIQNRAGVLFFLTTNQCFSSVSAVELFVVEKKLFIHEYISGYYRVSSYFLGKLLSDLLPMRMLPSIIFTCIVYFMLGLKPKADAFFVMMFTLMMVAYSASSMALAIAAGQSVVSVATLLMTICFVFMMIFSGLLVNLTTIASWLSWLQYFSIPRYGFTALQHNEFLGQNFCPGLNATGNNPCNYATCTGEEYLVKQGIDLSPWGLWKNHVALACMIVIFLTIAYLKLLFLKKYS

Consider `CC(=O)c1sc(NC(=O)C2(F)C(F)(F)C(F)(F)C(F)(F)C(F)(F)C2(F)F)nc1C`, for which the half-maximal activity concentration (AC50) (commonly the midpoint of the concentration-response curve, whichever way the signal moves) is 22.6 µM (active) in assay [1] and 4.23 µM (active) in [5]. Moreover, the EC50 (commonly the concentration that produces a half-maximal response) is > 120 µM (not active) in assay [2], 32.2 µM (active) in [3] and > 120 µM (not active) in assay [4].

For the compound `NCC12CC3CC(C1)CC(c1ccc(Br)cc1)(C3)C2`, the AC50 was 5.67 µM (active) in assay [6], 17.1 µM (active) in assay [7], 32 µM (active) in [8] and 16.3 µM (active) in [9].

Turning to `COc1ccc(N2CCN(C(=O)c3ccc4c(c3)CC(c3ccccc3)OC4=O)CC2)cc1` (stereo not drawn), the IC50 – broadly, the concentration needed to halve the response being measured – in [10] was > 80 µM (inactive).

Consider `CC(Sc1nc(-c2ccccc2)cc(C(F)(F)F)n1)C(=O)N1CCCCC1` (stereo not drawn), for which the EC50 is 0.0143 µM (active) in assay [11] and 0.214 µM (active) in assay [12].

In the case of `CC(C)C(NS(=O)(=O)c1ccccc1)C(=O)OCc1cc([N+](=O)[O-])cc2c1OCOC2` (stereo not drawn), in assay [13], the 50% effective concentration (EC50) is 1.57 µM (active). Moreover, the 50% inhibitory concentration (IC50) in assay [14] was > 50 µM (not active).

Consider `O=C(NCCCn1ccnc1)Nc1cccc(Cl)c1`, for which, in [15], the AC50 is 116 µM (active).

Take `N#Cc1c(Nc2ccccc2)[n+]([O-])c2ccc(Cl)cc2[n+]1[O-]`: the AC50 in [16] is 38.5 µM (active); in assay [17], 20.7 µM (active); in assay [18], 22.5 µM (active).
